Data set [1] can be described thus: Cleavage half-life / conversion of PTH prodrugs in PBS pH 7.4, 37° C. by LC-MS. It counts as physicochemical. The conditions noted are these: for half-life: PBS buffer, dipeptide cleavage from PTH prodrug, PBS pH 7.4, 37° C., read-out: Half life (converted). The method, then: The resulting solution was incubated at 37° C. Aliquots were taken at designed time points and analyzed by LC-MS. […] Flow rate of 1 mL/min and a gradient of 10%-80% acetonitrile in water, with 0.1% trifluoroacetic acid over 10 min. […] The concentration of prodrug and drug were determined by their relative peak areas. The […] dissociation rate constant of the prodrug was determined by plotting the logarithm in the concentration of the prodrug at various time points.

In data set [2] the target is T1, PTHR1 (Homo sapiens, UniProt Q03431).
T1 construct: host or cells: CHO-K1
T1 sequence (Q03431 27-593): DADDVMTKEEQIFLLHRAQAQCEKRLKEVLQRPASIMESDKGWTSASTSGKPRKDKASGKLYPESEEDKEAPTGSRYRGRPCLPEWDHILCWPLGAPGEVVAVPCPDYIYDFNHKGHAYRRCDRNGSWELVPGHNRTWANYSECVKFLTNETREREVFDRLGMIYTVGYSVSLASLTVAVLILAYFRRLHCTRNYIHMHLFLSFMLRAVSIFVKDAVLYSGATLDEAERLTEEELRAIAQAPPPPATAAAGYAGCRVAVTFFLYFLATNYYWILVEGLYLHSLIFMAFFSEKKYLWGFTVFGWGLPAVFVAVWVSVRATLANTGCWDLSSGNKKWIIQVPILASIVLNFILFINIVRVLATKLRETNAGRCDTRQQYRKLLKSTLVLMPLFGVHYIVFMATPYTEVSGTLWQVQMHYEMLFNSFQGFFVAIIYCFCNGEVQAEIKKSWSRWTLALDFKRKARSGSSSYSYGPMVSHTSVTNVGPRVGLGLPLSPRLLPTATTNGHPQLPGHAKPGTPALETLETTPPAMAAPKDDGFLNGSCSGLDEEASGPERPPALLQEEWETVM
Kind of data set: cAMP Hunter Teriparatide Bioassay (CHO-K1 PTHR1 cells). The format is cell-based.
Description: The assessment of the bioactivity of a prodrug relative to its drug form was conducted in a proprietary commercial assay as contracted with Eurofins-Discover Rx Corporation win a cAMP Hunter® Teriparatide Bioassay (95-0118Y2). An 11-point dose curve in agonist mode was conducted for each individual peptide or incubation condition. Every sample was run at each dose in triplicate.
An 11-point dose curve in agonist mode was conducted for each individual peptide or incubation condition. Every sample was run at each dose in triplicate.
An 11-point dose curve in agonist mode was conducted for each individual peptide at each concentration. Every sample was run at each dose in triplicate.

*1 amine or outer side, *2 acyl side, *3 side chain or, on linkers, in order; H or OH if unused. Where a SMILES comes first, the peptide text is derived from it. Side-chain parts run from the residue outwards. The star is where a group is joined. C18 diacid = O=C(O)CCCCCCCCCCCCCCCCC(=O)*; γGlu = O=C(O)[C@H](CCC(=O)[*:2])N[*:1]; AEEA = NCCOCCOCC(=O)O

The half-life is how long it takes for the measured level to halve. As to `CC[C@H](C)[C@H](NC(=O)[C@H](CCC(=O)O)NC(=O)[C@H](CO)NC(=O)[C@@H](NC(=O)[C@H](CO)NC(=O)[C@@H]1CCCCN1C(=O)[C@@H](N)CCCCNC(=O)CC[C@H](NC(=O)CCCCCCCCCCCCCCCCC(=O)O)C(=O)O)C(C)C)C(=O)N[C@@H](CCC(N)=O)C(=O)N[C@@H](CC(C)C)C(=O)N[C@@H](CCSC)C(=O)N[C@@H](Cc1c[nH]cn1)C(=O)N[C@@H](CC(N)=O)C(=O)N[C@@H](CC(C)C)C(=O)NCC(=O)N[C@@H](CCCCN)C(=O)N[C@@H](Cc1c[nH]cn1)C(=O)N[C@@H](CC(C)C)C(=O)N[C@@H](CC(N)=O)C(=O)N[C@@H](CO)C(=O)N[C@@H](CCSC)C(=O)N[C@@H](CCC(=O)O)C(=O)N[C@@H](CCCNC(=N)N)C(=O)N[C@H](C(=O)N[C@@H](CCC(=O)O)C(=O)N[C@@H](Cc1c[nH]c2ccccc12)C(=O)N[C@@H](CC(C)C)C(=O)N[C@@H](CCCNC(=N)N)C(=O)N[C@@H](CCCCN)C(=O)N[C@@H](CCCCN)C(=O)N[C@@H](CC(C)C)C(=O)N[C@@H](CCC(N)=O)C(=O)N[C@@H](CC(=O)O)C(=O)N[C@H](C(=O)N[C@@H](Cc1c[nH]cn1)C(=O)N[C@@H](CC(N)=O)C(=O)N[C@@H](Cc1ccccc1)C(=O)O)C(C)C)C(C)C` [SEQ ID NO: 54], the half-life in data set [1] was 250 h. Moreover, in data set [1] (comparator SEQ ID NO: 52), the “Half life, fold slower than Sar (vs SEQ ID NO: 52)” value amounted to 1.9 slower than Sar.
Turning to `CC[C@H](C)[C@H](NC(=O)[C@H](CCC(=O)O)NC(=O)[C@H](CO)NC(=O)[C@@H](NC(=O)[C@H](CO)NC(=O)CN(C)C(=O)[C@H](N)CCCCN)C(C)C)C(=O)N[C@@H](CCC(N)=O)C(=O)N[C@@H](CC(C)C)C(=O)N[C@@H](CCSC)C(=O)N[C@@H](Cc1c[nH]cn1)C(=O)N[C@@H](CC(N)=O)C(=O)N[C@@H](CC(C)C)C(=O)NCC(=O)N[C@@H](CCCCN)C(=O)N[C@@H](Cc1c[nH]cn1)C(=O)N[C@@H](CC(C)C)C(=O)N[C@@H](CC(N)=O)C(=O)N[C@@H](CO)C(=O)N[C@@H](CCSC)C(=O)N[C@@H](CCC(=O)O)C(=O)N[C@@H](CCCNC(=N)N)C(=O)N[C@H](C(=O)N[C@@H](CCC(=O)O)C(=O)N[C@@H](Cc1c[nH]c2ccccc12)C(=O)N[C@@H](CC(C)C)C(=O)N[C@@H](CCCNC(=N)N)C(=O)N[C@@H](CCCCN)C(=O)N[C@@H](CCCCN)C(=O)N[C@@H](CC(C)C)C(=O)N[C@@H](CCC(N)=O)C(=O)N[C@@H](CC(=O)O)C(=O)N[C@H](C(=O)N[C@@H](Cc1c[nH]cn1)C(=O)N[C@@H](CC(N)=O)C(=O)N[C@@H](Cc1ccccc1)C(=O)N[C@@H](CCCCNC(=O)CC[C@H](NC(=O)CCCCCCCCCCCCCCCCC(=O)O)C(=O)O)C(N)=O)C(C)C)C(C)C` [SEQ ID NO: 57], in data set [1], the half-life was 49 h. The “Half life, fold faster (vs SEQ ID NO: 45)” value in data set [1] (comparator SEQ ID NO: 45) is 1.8 faster without.
`CC[C@H](C)[C@H](NC(=O)[C@H](CCC(=O)O)NC(=O)[C@H](CO)NC(=O)[C@@H](NC(=O)[C@@H](N)CO)C(C)C)C(=O)N[C@@H](CCC(N)=O)C(=O)N[C@@H](CC(C)C)C(=O)N[C@@H](CCSC)C(=O)N[C@@H](Cc1c[nH]cn1)C(=O)N[C@@H](CC(N)=O)C(=O)N[C@@H](CC(C)C)C(=O)NCC(=O)N[C@@H](CCCCN)C(=O)N[C@@H](Cc1c[nH]cn1)C(=O)N[C@@H](CC(C)C)C(=O)N[C@@H](CC(=O)O)C(=O)N[C@@H](CO)C(=O)N[C@@H](CCSC)C(=O)N[C@@H](CCC(=O)O)C(=O)N[C@@H](CCCNC(=N)N)C(=O)N[C@H](C(=O)N[C@@H](CCC(=O)O)C(=O)N[C@@H](Cc1c[nH]c2ccccc12)C(=O)N[C@@H](CC(C)C)C(=O)N[C@@H](CCCNC(=N)N)C(=O)N[C@@H](CCCCN)C(=O)N[C@@H](CCCCN)C(=O)N[C@@H](CC(C)C)C(=O)N[C@@H](CCC(N)=O)C(=O)N[C@@H](CC(=O)O)C(=O)N[C@H](C(=O)N[C@@H](Cc1c[nH]cn1)C(=O)N[C@@H](CCCCNC(=O)CC[C@H](NC(=O)COCCOCCNC(=O)COCCOCCNC(=O)CC[C@H](NC(=O)CCCCCCCCCCCCCCCCC(=O)O)C(=O)O)C(=O)O)C(=O)O)C(C)C)C(C)C` [SEQ ID NO: 122] (H-SVSEIQLMHNLGKHLDSMERVEWLRKKLQDVHK([γGlu-AEEA-AEEA-γGlu-C18 diacid])-OH; N-terminus and C-terminus assumed): in data set [2] (FIG. 13B), the Hillslope is 2.522 and the S/B was 8.2.
Consider `CC[C@H](C)[C@H](NC(=O)[C@H](CCC(=O)O)NC(=O)[C@H](CO)NC(=O)[C@@H](NC(=O)[C@@H](N)CO)C(C)C)C(=O)N[C@@H](CCC(=O)O)C(=O)N[C@@H](CC(C)C)C(=O)N[C@@H](CCSC)C(=O)N[C@@H](Cc1c[nH]cn1)C(=O)N[C@@H](CC(N)=O)C(=O)N[C@@H](CC(C)C)C(=O)NCC(=O)N[C@@H](CCCCN)C(=O)N[C@@H](Cc1c[nH]cn1)C(=O)N[C@@H](CC(C)C)C(=O)N[C@@H](CC(N)=O)C(=O)N[C@@H](CO)C(=O)N[C@@H](CCSC)C(=O)N[C@@H](CCC(=O)O)C(=O)N[C@@H](CCCNC(=N)N)C(=O)N[C@H](C(=O)N[C@@H](CCC(=O)O)C(=O)N[C@@H](Cc1c[nH]c2ccccc12)C(=O)N[C@@H](CC(C)C)C(=O)N[C@@H](CCCNC(=N)N)C(=O)N[C@@H](CCCCN)C(=O)N[C@@H](CCCCN)C(=O)N[C@@H](CC(C)C)C(=O)N[C@@H](CCC(N)=O)C(=O)N[C@@H](CC(=O)O)C(=O)N[C@H](C(=O)N[C@@H](Cc1c[nH]cn1)C(=O)N[C@@H](CCCCNC(=O)CC[C@H](NC(=O)COCCOCCNC(=O)COCCOCCNC(=O)CC[C@H](NC(=O)CCCCCCCCCCCCCCCCC(=O)O)C(=O)O)C(=O)O)C(=O)O)C(C)C)C(C)C` [SEQ ID NO: 118] (H-SVSEIELMHNLGKHLNSMERVEWLRKKLQDVHK([γGlu-AEEA-AEEA-γGlu-C18 diacid])-OH; N-terminus and C-terminus assumed), for which, in data set [2] (FIG. 13A), the Hillslope came to 1.648 and the S/B was 9.4.
In data set [2] (FIG. 13A), `CC[C@H](C)[C@H](NC(=O)[C@H](CCC(=O)O)NC(=O)[C@H](CO)NC(=O)[C@@H](NC(=O)[C@@H](N)CO)C(C)C)C(=O)N[C@@H](CCC(N)=O)C(=O)N[C@@H](CC(C)C)C(=O)N[C@@H](CCSC)C(=O)N[C@@H](Cc1c[nH]cn1)C(=O)N[C@@H](CC(=O)O)C(=O)N[C@@H](CC(C)C)C(=O)NCC(=O)N[C@@H](CCCCN)C(=O)N[C@@H](Cc1c[nH]cn1)C(=O)N[C@@H](CC(C)C)C(=O)N[C@@H](CC(N)=O)C(=O)N[C@@H](CO)C(=O)N[C@@H](CCSC)C(=O)N[C@@H](CCC(=O)O)C(=O)N[C@@H](CCCNC(=N)N)C(=O)N[C@H](C(=O)N[C@@H](CCC(=O)O)C(=O)N[C@@H](Cc1c[nH]c2ccccc12)C(=O)N[C@@H](CC(C)C)C(=O)N[C@@H](CCCNC(=N)N)C(=O)N[C@@H](CCCCN)C(=O)N[C@@H](CCCCN)C(=O)N[C@@H](CC(C)C)C(=O)N[C@@H](CCC(N)=O)C(=O)N[C@@H](CC(=O)O)C(=O)N[C@H](C(=O)N[C@@H](Cc1c[nH]cn1)C(=O)N[C@@H](CCCCNC(=O)CC[C@H](NC(=O)COCCOCCNC(=O)COCCOCCNC(=O)CC[C@H](NC(=O)CCCCCCCCCCCCCCCCC(=O)O)C(=O)O)C(=O)O)C(=O)O)C(C)C)C(C)C` [SEQ ID NO: 120] (H-SVSEIQLMHDLGKHLNSMERVEWLRKKLQDVHK([γGlu-AEEA-AEEA-γGlu-C18 diacid])-OH) registered a Hillslope of 2.804 and a S/B of 10.
